In ChEMBL document CHEMBL1157380, “Aplysamine 6, an alkaloidal inhibitor of Isoprenylcysteine carboxyl methyltransferase from the sponge Pseudoceratina sp” (J Nat Prod, 2008):
pIC50: −log10 of the molar value. Calls of active or inactive are those of the source. The calls are words filed in the database; no cut-off is given here.

Assays:
[1] = molecular target: T1, Protein-S-isoprenylcysteine O-methyltransferase (Homo sapiens, UniProt O60725); experiment: Inhibition of Icmt up to 100 uM after 60 mins using [3H]biotin as substrate by artifact assay
[2] = molecular target: T1, Protein-S-isoprenylcysteine O-methyltransferase; experiment: Inhibition of Icmt using [3H]SAM as substrate

T1 sequence (O60725 whole entry): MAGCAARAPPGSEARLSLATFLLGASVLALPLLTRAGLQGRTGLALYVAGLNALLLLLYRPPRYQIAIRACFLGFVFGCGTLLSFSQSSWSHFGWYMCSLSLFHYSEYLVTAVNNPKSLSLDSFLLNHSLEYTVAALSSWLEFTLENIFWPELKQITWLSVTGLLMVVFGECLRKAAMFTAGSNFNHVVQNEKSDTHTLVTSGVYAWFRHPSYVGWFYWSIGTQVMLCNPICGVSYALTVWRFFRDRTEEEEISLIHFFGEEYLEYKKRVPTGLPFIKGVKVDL

With `COc1ccc(/C=C/C(=O)NCCc2cc(Br)c(OCCCN)c(Br)c2)cc1Br` [APLYSAMINE 6] the Activity [1] was “inactive” and the pIC50 [2] was 4.85.
